From article PMC8329300, “X-ray crystallography reveals molecular recognition mechanism for sugar binding in a melibiose transporter MelB” (Communications Biology, 2021)

Columns and labels:
D59C MelBSt = molecular target: T1, D59C MelBSt (Salmonella typhimurium, UniProt P30878, D59C); assay: Melibiose fermentation on MacConkey agar (DW2 transformants); format: cell-based; settings: 30 mM melibiose, 37 °C
T1 construct: Cys scanning mutagenesis for the full-length MelBSt; His10 (C); made in house; host or cells: E. coli DW2
T1 sequence (P30878 whole entry D59C): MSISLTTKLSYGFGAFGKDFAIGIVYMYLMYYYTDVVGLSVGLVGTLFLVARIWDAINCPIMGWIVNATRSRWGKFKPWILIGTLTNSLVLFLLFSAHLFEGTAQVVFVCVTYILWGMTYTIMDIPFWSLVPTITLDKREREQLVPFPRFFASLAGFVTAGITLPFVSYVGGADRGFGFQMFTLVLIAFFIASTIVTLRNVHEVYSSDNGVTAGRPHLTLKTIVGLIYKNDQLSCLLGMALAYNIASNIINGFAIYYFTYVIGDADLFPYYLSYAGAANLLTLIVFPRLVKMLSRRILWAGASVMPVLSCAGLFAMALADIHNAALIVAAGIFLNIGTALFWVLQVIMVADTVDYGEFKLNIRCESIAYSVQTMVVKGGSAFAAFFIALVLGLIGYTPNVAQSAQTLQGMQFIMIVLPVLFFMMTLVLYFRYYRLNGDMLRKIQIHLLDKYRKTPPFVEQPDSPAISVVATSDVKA
Experimental: Fig. 1 Functional characterizations. a [^3H] Melibiose transport time course with intact cells. E. coli DW2 strain (melB^−, lacZ^−Y^−) expressed with the WT, D59C, or D59A MelBSt mutants were subjected to [^3H]melibiose active transport assay at 0.4 mM and 10 mCi/mmol in the presence of 20 mM or 100 mM NaCl or LiCl by a fast filtration method. Inset, melibiose fermentation assay. Transformants with DW2 strain were plated on MacConkey agar plates containing 30 mM melibiose as the sole carbohydrate source and pH sensor neutral red, and incubated at 37 °C for 16–18 h before imaging. Number of tests = 3, from different batch of cells or duplicate measurements from same batch of sample. b Ligand binding by Trp→dansyl galactoside (D^2G) FRET assay. Purified proteins at 1 μM concentration in 20 mM Tris-HCl, pH 7.5, 100 mM CholCl, 10% glycerol, and 0.03% UDM were subjected to steady-state fluorescence measurements as described in Methods. On the time-trace, 1.8 μL of 1 mM D^2G at 10 μM was added into 180 μL of protein solutions at 1-min point, followed by supplying 10 μL of 5 mM DDMB or 5 mM α-NPG to displace the bound D^2G. For testing Na^+ or Li^+ binding, they are added into the solution before displacement with the second sugar. The structure of DDMB or α-NPG is shown in a chair form, and the carbon positions are labeled. Glycosidic bonds are indicated by arrows. […]

MelBSt WT = molecular target: T2, MelBSt WT (Salmonella typhimurium, UniProt P30878); assay: [3H]Melibiose transport time course with DW2 intact cells expressing MelBSt WT; format: cell-based; settings: 0.4 mM [3H]melibiose
T2 construct: Cys scanning mutagenesis for the full-length MelBSt; expressed in transfected cells; host or cells: E. coli DW2 (melA+, melB-, lacZ-Y-)
T2 sequence (P30878 whole entry): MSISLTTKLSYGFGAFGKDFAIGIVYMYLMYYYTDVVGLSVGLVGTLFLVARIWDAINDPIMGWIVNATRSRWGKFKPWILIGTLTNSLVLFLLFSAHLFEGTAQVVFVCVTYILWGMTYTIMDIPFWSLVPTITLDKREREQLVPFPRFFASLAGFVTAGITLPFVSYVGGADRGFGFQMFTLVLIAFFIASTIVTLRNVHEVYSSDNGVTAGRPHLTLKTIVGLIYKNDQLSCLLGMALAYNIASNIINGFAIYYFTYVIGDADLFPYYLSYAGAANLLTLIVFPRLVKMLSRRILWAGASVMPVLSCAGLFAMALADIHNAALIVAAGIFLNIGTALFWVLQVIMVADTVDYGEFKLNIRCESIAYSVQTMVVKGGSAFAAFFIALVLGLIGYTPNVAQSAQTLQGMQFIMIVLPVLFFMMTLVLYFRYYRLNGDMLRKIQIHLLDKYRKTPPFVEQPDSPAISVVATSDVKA
Experimental: Fig. 1 Functional characterizations. a [^3H] Melibiose transport time course with intact cells. E. coli DW2 strain (melB^−, lacZ^−Y^−) expressed with the WT, D59C, or D59A MelBSt mutants were subjected to [^3H]melibiose active transport assay at 0.4 mM and 10 mCi/mmol in the presence of 20 mM or 100 mM NaCl or LiCl by a fast filtration method. Inset, melibiose fermentation assay. Transformants with DW2 strain were plated on MacConkey agar plates containing 30 mM melibiose as the sole carbohydrate source and pH sensor neutral red, and incubated at 37 °C for 16–18 h before imaging. Number of tests = 3, from different batch of cells or duplicate measurements from same batch of sample. b Ligand binding by Trp→dansyl galactoside (D^2G) FRET assay. Purified proteins at 1 μM concentration in 20 mM Tris-HCl, pH 7.5, 100 mM CholCl, 10% glycerol, and 0.03% UDM were subjected to steady-state fluorescence measurements as described in Methods. On the time-trace, 1.8 μL of 1 mM D^2G at 10 μM was added into 180 μL of protein solutions at 1-min point, followed by supplying 10 μL of 5 mM DDMB or 5 mM α-NPG to displace the bound D^2G. For testing Na^+ or Li^+ binding, they are added into the solution before displacement with the second sugar. The structure of DDMB or α-NPG is shown in a chair form, and the carbon positions are labeled. Glycosidic bonds are indicated by arrows. Both are α-galactosides containing a substituent at the anomeric carbon-1. The data were from duplicate measurements.
The overexpression of MelBSt was carried out in the E. coli DW2 strain (melA^+, melB^−, and lacZ^−Y^−) from a constitutive expression plasmid pK95ΔAH/MelBSt/CHis10[9],[28],[33]. The D59C or D59A mutant with Cys or Ala at the position 59, respectively, was constructed previously[9] or in this study by QuikChange Site-Directed Mutagenesis kit and confirmed by DNA sequencing analysis. E. coli DW2 cells containing a given plasmid were grown in Luria-Bertani (LB) broth (5 g yeast extract and 10 g tryptone per liter with 171 mM NaCl) with 100 mg/L of ampicillin in a 37 °C shaker. The overnight cultures were diluted by 5% with LB broth supplemented with 0.5% glycerol and 100 mg/L of ampicillin, and constitutive overexpression was obtained by shaking at 30 °C for another 5 h.
E. coli DW2 cells expressing MelBSt were washed with 100 mM KPi, pH 7.5, to remove Na^+ contamination as described previously. The cell pellets were resuspended with the assay buffer (100 mM KPi, pH 7.5, 10 mM MgSO4) and adjusted to A420 of 10 (∼0.7 mg protein/ml). Using a fast filtration, transport time course at 0.4 mM melibiose (at specific activity of 10 mCi/mmol) was carried out in the absence or presence of NaCl or LiCl at 20 mM or 100 mM, respectively, and intracellular melibiose was determined as described previously.

**Q.** With `OC[C@H]1O[C@H](OCC2O[C@@H](O)[C@H](O)[C@@H](O)[C@@H]2O)[C@H](O)[C@@H](O)[C@H]1O` (some centres unmarked) [Melibiose] as the compound, how does the “melibiose fermentation (colony colour)” value (D59C MelBSt) read?
**A.** The value was “normal melibiose fermentation with red colonies”.

**Q.** And the Melibiose transport (MelBSt WT; H+, Time 0.08333)?
**A.** The Melibiose transport was 4.65.

**Q.** And the Melibiose transport (MelBSt WT; H+, Time 0.16667)?
**A.** The Melibiose transport was 11.5871.

**Q.** And the Melibiose transport (MelBSt WT; H+, Time 0.5)?
**A.** Its Melibiose transport is 17.8175.

**Q.** And the Melibiose transport (MelBSt WT; H+, Time 1)?
**A.** The Melibiose transport was 26.1053.

**Q.** And the Melibiose transport (MelBSt WT; H+, Time 2)?
**A.** Its Melibiose transport is 32.522.

**Q.** What about the Melibiose transport (MelBSt WT; H+, Time 5) of the same compound?
**A.** The Melibiose transport was 41.2117.

**Q.** What about the Melibiose transport (MelBSt WT; H+, Time 10) of the same compound?
**A.** Its Melibiose transport is 51.4376.

**Q.** And the Melibiose transport (MelBSt WT; H+, Time 30)?
**A.** The Melibiose transport was 52.9751.

**Q.** And the Melibiose transport (MelBSt WT; Li+, 20 mM, Time 0.08333)?
**A.** The Melibiose transport was 5.082.

**Q.** What about the Melibiose transport (MelBSt WT; Li+, 20 mM, Time 0.16667) of the same compound?
**A.** The Melibiose transport was 9.37.

**Q.** And the Melibiose transport (MelBSt WT; Li+, 20 mM, Time 0.5)?
**A.** Its Melibiose transport is 20.2553.

**Q.** And the Melibiose transport (MelBSt WT; Li+, 20 mM, Time 1)?
**A.** Its Melibiose transport is 29.5856.

**Q.** What about the Melibiose transport (MelBSt WT; Li+, 20 mM, Time 2) of the same compound?
**A.** The Melibiose transport was 49.8958.

**Q.** What about the Melibiose transport (MelBSt WT; Li+, 20 mM, Time 5) of the same compound?
**A.** Its Melibiose transport is 106.047.

**Q.** And the Melibiose transport (MelBSt WT; Li+, 20 mM, Time 10)?
**A.** The Melibiose transport was 190.811.

**Q.** What about the Melibiose transport (MelBSt WT; Li+, 20 mM, Time 30) of the same compound?
**A.** The Melibiose transport was 313.001.

**Q.** What about the Melibiose transport (MelBSt WT; Li+, 100 mM, Time 0.08333) of the same compound?
**A.** Its Melibiose transport is 13.3342.

**Q.** What about the Melibiose transport (MelBSt WT; Li+, 100 mM, Time 0.16667) of the same compound?
**A.** The Melibiose transport was 15.8108.

**Q.** And the Melibiose transport (MelBSt WT; Li+, 100 mM, Time 0.5)?
**A.** The Melibiose transport was 32.509.

**Q.** And the Melibiose transport (MelBSt WT; Li+, 100 mM, Time 1)?
**A.** The Melibiose transport was 62.5704.

**Q.** And the Melibiose transport (MelBSt WT; Li+, 100 mM, Time 2)?
**A.** Its Melibiose transport is 85.8864.

**Q.** What about the Melibiose transport (MelBSt WT; Li+, 100 mM, Time 5) of the same compound?
**A.** Its Melibiose transport is 142.587.

**Q.** And the Melibiose transport (MelBSt WT; Li+, 100 mM, Time 10)?
**A.** The Melibiose transport was 325.223.

**Q.** And the Melibiose transport (MelBSt WT; Li+, 100 mM, Time 30)?
**A.** Its Melibiose transport is 437.5.

**Q.** What about the Melibiose transport (MelBSt WT; Na+, 20 mM, Time 0.08333) of the same compound?
**A.** The Melibiose transport was 6.156.

**Q.** What about the Melibiose transport (MelBSt WT; Na+, 20 mM, Time 0.16667) of the same compound?
**A.** The Melibiose transport was 13.1731.

**Q.** What about the Melibiose transport (MelBSt WT; Na+, 20 mM, Time 0.5) of the same compound?
**A.** The Melibiose transport was 23.5532.

**Q.** What about the Melibiose transport (MelBSt WT; Na+, 20 mM, Time 1) of the same compound?
**A.** Its Melibiose transport is 28.6147.

**Q.** And the Melibiose transport (MelBSt WT; Na+, 20 mM, Time 2)?
**A.** Its Melibiose transport is 46.7036.

**Q.** What about the Melibiose transport (MelBSt WT; Na+, 20 mM, Time 5) of the same compound?
**A.** Its Melibiose transport is 103.453.

**Q.** What about the Melibiose transport (MelBSt WT; Na+, 20 mM, Time 10) of the same compound?
**A.** The Melibiose transport was 203.925.

**Q.** And the Melibiose transport (MelBSt WT; Na+, 20 mM, Time 30)?
**A.** Its Melibiose transport is 320.843.

**Q.** What about the Melibiose transport (MelBSt WT; Na+, 100 mM, Time 0.08333) of the same compound?
**A.** Its Melibiose transport is 7.0516.

**Q.** What about the Melibiose transport (MelBSt WT; Na+, 100 mM, Time 0.16667) of the same compound?
**A.** The Melibiose transport was 7.9788.

**Q.** What about the Melibiose transport (MelBSt WT; Na+, 100 mM, Time 0.5) of the same compound?
**A.** Its Melibiose transport is 20.0324.

**Q.** What about the Melibiose transport (MelBSt WT; Na+, 100 mM, Time 1) of the same compound?
**A.** The Melibiose transport was 44.6398.

**Q.** And the Melibiose transport (MelBSt WT; Na+, 100 mM, Time 2)?
**A.** The Melibiose transport was 78.2935.

**Q.** And the Melibiose transport (MelBSt WT; Na+, 100 mM, Time 5)?
**A.** The Melibiose transport was 118.81.

**Q.** What about the Melibiose transport (MelBSt WT; Na+, 100 mM, Time 10) of the same compound?
**A.** The Melibiose transport was 202.959.

**Q.** What about the Melibiose transport (MelBSt WT; Na+, 100 mM, Time 30) of the same compound?
**A.** Its Melibiose transport is 340.508.
